# How the values were obtained:
# LD1 and LD5 = test: Screening of amphiphiles for ability to discriminate between LD1 and LD5; conditions: range of amphiphile concentrations; relative activity vs buffer
# Procedure: A series of solutions was prepared covering a range of concentrations for each amphiphile to be tested. The activities of both LD1 and LD5 were determined in the presence of the various concentrations of each amphiphile and compared with enzyme activities in buffer (relative activity).
# Enzyme activity in the presence and absence of amphiphile was measured by the following procedure: Stock solutions of NADH (4 mM) and pyruvate (40 mM) were prepared daily in 30 mM sodium phosphate buffer, pH 7.4. Enzyme solutions were prepared daily by withdrawing 5 μl of the stock enzyme solutions with a Hamilton syringe and diluting to 5 ml with 30 mM sodium phosphate buffer. (The resulting solution contains approximately 5 U of enzyme/ml.) The enzyme assay was run by pipetting 2.7 ml of buffer or buffer surfactant solution into a 10 mm path length quartz cuvette, and 100 μl each of NADH and pyruvate stock solutions were added. […] Enzyme solution was added with good mixing; the absorbance decrease at 340 nm was measured as a function of time. The rate of the reaction was determined by measuring the slope of the initial absorbance decrease, i.e., within the first 50 seconds of the reaction.
# LD1 [1] = molecular target: LD1 (Sus scrofa, UniProt P00336); test: Effect of cationic amphiphiles on the activity of LDH isoenzymes (Table 1); assay type: biochemical; conditions: 30 mM sodium phosphate buffer pH 7.4, 25° C.; read-out: Amphiphile conc. Req'd for 50% Inactivation of Specified Isoenzyme (LD1)
# Sequence of LD1 (Sus scrofa, UniProt P00336) (P00336 whole entry): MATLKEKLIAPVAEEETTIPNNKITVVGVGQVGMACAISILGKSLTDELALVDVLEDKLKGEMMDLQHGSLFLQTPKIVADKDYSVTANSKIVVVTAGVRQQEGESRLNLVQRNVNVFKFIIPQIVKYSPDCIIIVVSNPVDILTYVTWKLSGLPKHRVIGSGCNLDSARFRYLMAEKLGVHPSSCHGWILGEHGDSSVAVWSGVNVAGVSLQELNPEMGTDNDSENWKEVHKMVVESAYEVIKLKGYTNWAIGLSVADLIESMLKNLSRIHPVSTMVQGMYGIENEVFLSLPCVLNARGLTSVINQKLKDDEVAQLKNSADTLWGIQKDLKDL
# Procedure: (§1) The assay for LDH activity in both the absence and presence of surfactant was conducted as follows. […] The resulting solution contains approximately 5 units/ml. […] To the equilibrated solution […]. of the enzyme solution was added, and the cuvette was rapidly shaken while covering the top of the cuvette with a small piece of Parafilm® and placed back into the spectrophotometer.
# (§2) Amphiphile solutions were prepared by weighing out a given amount of amphiphile, e.g., 100 mg, and preparing a stock solution in 30 mM sodium phosphate buffer in 100 ml. volumetric flask. Solutions of lower amphiphile concentration were prepared by making the appropriate dilutions from the stock solution.
# A number of cationic amphiphiles were investigated for specific inactivation of LD1 in the presence of LD5 and these compounds are listed in Table 1.
# [2] = molecular target: T1, LDH isoenzymes (LD5 in the presence of LD1) (Oryctolagus cuniculus, UniProt P13491); test: Anionic amphiphiles tested for specific interaction with LDH isoenzymes (Table 2); assay type: biochemical
# T1 construct: LD1 (LDHB tetramer) only as comparison
# Procedure: as §1, §2
# A number of anionic amphiphiles were investigated for specific inactivation of LD5 in the presence of LD1 and these compounds are listed in Table 2.
# LD1 [3] = test: LDH activity assay with amphiphile, LDH isoenzymes; assay type: biochemical, porcine; conditions: FIG. 12
# Procedure: 3. Beef heart LDH (Sigma Chemical Co., Type III), rabbit muscle LDH (Sigma Chemical Co., Type V) and porcine LDH, LD1, LD2, LD3, LD4 and LD5 in the form of ammonium sulfate suspensions were used for these examples.
# as §1, §2
Compound,"Effectiveness (LDH isoenzyme inhibition specificity, LD1 vs LD5) (LD1 and LD5)",further results
CCCCCCCCCCCC(=O)[O-].[Na+] [Sodium dodecanoate],0,
CCCCCCCCOS(=O)(=O)[O-].[Na+] [Sodium octyl sulfate],+,
CCCCCCCCCCCCCCCCCC(=O)[O-].[Na+] [Sodium stearate],0,
CCCCCCCCCCCCCCOS(=O)(=O)[O-].[Na+] [Sodium tetradecylsulfate],++,
CCCCCCCC[N+](CCC)(CCCCCCCC)CCCCCCCC.[Br-] [Trioctylpropylammonium bromide],0,IC50 (LD1 [1]): 1600 µM
C[C@H](CCC(=O)O)[C@H]1CC[C@H]2[C@@H]3C(=O)C[C@@H]4CC(=O)CC[C@]4(C)[C@H]3CC(=O)[C@]12C [dehydrocholic acid],,Interaction (specific inactivation of LD5 in the presence of LD1) [2]: no effect
CCCCCCCCCCCC(=O)O [lauric acid],,Interaction (specific inactivation of LD5 in the presence of LD1) [2]: no effect
CCCCCCCCCCCCCCCCCC(=O)[O-].[Li+] [lithium stearate],,Interaction (specific inactivation of LD5 in the presence of LD1) [2]: no effect
Heparin,+,inactivation of LD1 compared with LD5 (LD1 [3]): LD1 is more inactivated than LD5
Sodium isopropylnaphthalene sulfonate,+,
Sodium n-decyldiphenylether disulfonate,++,
octylphenolpoly(1-oxapropene)oxaethane carboxylic acid sodium salt,0,

# Source: US4250255A, “Assay method for isoenzyme activity” (Eastman Kodak Company, priority 1977, dated 1981)
